The CheMixHub viscosity set
Where “and” joins values, the source holds several entries; their conditions need not be identical. Equal entries are not always repeated.

Experiment: xn = mol fraction of the nth substance listed

CCCCCCCCCCCCCCCC + CC(C)CC(C)(C)C
298.15 K
Settings | viscosity [mPa·s]
101 kPa, x2 = 0.05562 | 2.82
101 kPa, x2 = 0.1311 | 2.55
101 kPa, x2 = 0.1971 | 2.371
101 kPa, x2 = 0.307 | 1.95
101 kPa, x2 = 0.4264 | 1.651
101 kPa, x2 = 0.5472 | 1.337
101 kPa, x2 = 0.6552 | 1.077
101 kPa, x2 = 0.7341 | 0.9214
101 kPa, x2 = 0.8043 | 0.7819
101 kPa, x2 = 0.8275 | 0.7495
101 kPa, x2 = 0.8768 | 0.6682
101 kPa, x2 = 0.929 | 0.5871
101 kPa, x2 = 0.9511 | 0.5441
101.33 kPa, x1 = 0.101 | 0.6392
101.33 kPa, x1 = 0.199 | 0.8143
101.33 kPa, x1 = 0.2987 | 1.014
101.33 kPa, x1 = 0.4006 | 1.24
101.33 kPa, x1 = 0.4999 | 1.489
101.33 kPa, x1 = 0.6004 | 1.765
101.33 kPa, x1 = 0.7002 | 2.062
101.33 kPa, x1 = 0.8003 | 2.391
101.33 kPa, x1 = 0.9001 | 2.72

O=CC(Cl)(Cl)Cl + CC(C)CCO
313.15 K, 101 kPa
Settings | viscosity [mPa·s]
x1 = 0.0715 | 2.825
x1 = 0.2226 | 4.098
x1 = 0.2851 | 4.684
x1 = 0.3509 | 5.476
x1 = 0.4001 | 6.07
x1 = 0.4335 | 6.48
x1 = 0.4573 | 6.923
x1 = 0.4722 | 6.922
x1 = 0.4823 | 6.831
x1 = 0.4926 | 6.751
x1 = 0.5251 | 6.026
x1 = 0.5576 | 5.406
x1 = 0.6165 | 3.935
x1 = 0.7376 | 2.151
x1 = 0.8868 | 1.283

ClC(Cl)Cl + CC(C)OC(C)C
298.15 K, 101 kPa
Settings | viscosity
x1 = 0.07 | 0.325 mPa·s
x1 = 0.12 | 0.35 mPa·s
x1 = 0.13 | 0.353 mPa·s
x1 = 0.16 | 0.369 mPa·s
x1 = 0.21 | 0.39 mPa·s
x1 = 0.26 | 0.413 mPa·s
x1 = 0.31 | 0.437 mPa·s
x1 = 0.35 | 0.458 mPa·s
x1 = 0.4 | 0.484 mPa·s
x1 = 0.46 | 0.507 mPa·s
x1 = 0.5 | 0.523 mPa·s
x1 = 0.55 | 0.543 mPa·s
x1 = 0.6 | 0.553 mPa·s
x1 = 0.65 | 0.565 mPa·s
x1 = 0.71 | 0.572 mPa·s
x1 = 0.76 | 0.577 mPa·s
x1 = 0.8 | 0.579 mPa·s
x1 = 0.85 | 0.581 mPa·s
x1 = 0.9 | 0.58 mPa·s
x1 = 0.95 | 0.579 mPa·s and 0.58 mPa·s

FC(F)Cl + CC(F)F
viscosity [mPa·s], 101 kPa
Settings | 293.35 K | 293.45 K | 312.95 K | 313.25 K
x1 = 0.159 | – | 0.178 | 0.1422 | –
x1 = 0.34 | – | 0.1749 | – | 0.1424
x1 = 0.534 | 0.1805 | – | – | 0.1485

O=CC(Cl)(Cl)Cl + CCC(C)=O
viscosity [mPa·s], 101 kPa
Settings | x1 = 0.1183 | x1 = 0.2018 | x1 = 0.3006 | x1 = 0.3959 | x1 = 0.5007 | x1 = 0.5979 | x1 = 0.6814 | x1 = 0.7599 | x1 = 0.847
298.15 K | 0.5125 | 0.5629 | 0.6247 | 0.6758 | 0.7457 | 0.8097 | 0.8541 | 0.8952 | 0.9503
323.15 K | 0.3989 | 0.4323 | 0.4784 | 0.5132 | 0.5619 | 0.6053 | 0.6241 | 0.6588 | 0.7035

O=CC(Cl)(Cl)Cl + CCCC(C)=O
viscosity [mPa·s], 101 kPa
Settings | x1 = 0.1199 | x1 = 0.2489 | x1 = 0.3714 | x1 = 0.5058 | x1 = 0.6071 | x1 = 0.7288 | x1 = 0.8116 | x1 = 0.9001
298.15 K | 0.524 | 0.595 | 0.6722 | 0.7399 | 0.8153 | 0.8727 | 0.9343 | 0.9935
323.15 K | 0.4084 | 0.458 | 0.5112 | 0.5571 | 0.6 | 0.6402 | 0.6822 | 0.7258
